From patent US12545639B2, “3-substituted phenylamidine compounds, preparation and use thereof” (PI INDUSTRIES LTD., priority 2019, dated 2026)

How the values were obtained:
Pyricularia oryzae = assay: microbe, parasite or virus in culture; type: cell-based; details: 168 h, read-out: control compared to the untreated check (radial growth)
Rhizoctonia solani = Rhizoctonia solani (rice sheath blight/potato black scurf) in vitro test, radial growth on potato dextrose agar; type: cell-based; details: 168 h, 300 ppm in potato dextrose agar, 25° C., 60% relative humidity, seven days, read-out: control compared to the untreated check (radial growth)
Botrytis cinerea = Botrytis cinerea (gray mold) in vitro test, radial growth on potato dextrose agar; type: cell-based; details: 168 h, 300 ppm in potato dextrose agar, 22° C., 90% relative humidity, seven days, read-out: control compared to the untreated check (radial growth)
Alternaria solani = Alternaria solani (early blight of tomato/potato) in vitro test, radial growth on potato dextrose agar; type: cell-based; details: 168 h, 300 ppm in potato dextrose agar, 25° C., 60% relative humidity, seven days, read-out: control compared to the untreated check (radial growth)
Colletotrichum capsici = Colletotrichum capsici (anthracnose) in vitro test, radial growth on potato dextrose agar; type: cell-based; details: Colletotrichum truncatum, 168 h; 300 ppm in potato dextrose agar; 25° C., 60% relative humidity, seven days; read-out: control compared to the untreated check (radial growth)
[1] = tested on: Septoria lycopersici/Corynespora cassicola (CORYCA); assay: Septoria lycopersici/Corynespora cassicola (CORYCA) (leaf spot of tomato) in vitro test, radial growth on potato dextrose agar; type: cell-based; details: 168 h, 300 ppm in potato dextrose agar, 25° C., 70% relative humidity, seven days, read-out: control compared to the untreated check (radial growth)
Fusarium culmorum = Fusarium culmorum (foot rot of cereals) in vitro test, radial growth on potato dextrose agar; type: cell-based; details: 168 h, 300 ppm in potato dextrose agar, 25° C., 60% relative humidity, seven days, read-out: control compared to the untreated check (radial growth)
Procedure: Compounds were dissolved in 0.3% dimethyl sulfoxide and then added to potato dextrose agar medium just prior to dispensing it into petri dishes. 5 mL medium with the compound in the desired concentration was dispensed into 60 mm sterile petri-plates. After solidification each plate was seeded with a 5 mm size mycelial disc taken from the periphery of an actively growing virulent culture plate. Plates were incubated in growth chambers at 25° C. temperature and 60% relative humidity for seven days and then the radial growth was measured and compared to that of the untreated control.

Phakopsora pachyrhizi = Phakopsora pachyrhizi test in soybean, preventive, in vivo on plants; details: in Glycine max, read-out: Efficacy (% control), disease severity compared to the untreated check

CCN(C)C=Nc1cc(C)cc(Cc2ccccc2C)c1C [Compound 4, N′-(2,5-dimethyl-3-(2-methylbenzyl)phenyl)-N-ethyl-N-methylformimidamide]
≥ 70%: inhibition of growth at 300 ppm (Pyricularia oryzae) | inhibition of growth at 300 ppm (Rhizoctonia solani) | inhibition of growth at 300 ppm (Botrytis cinerea) | inhibition of growth at 300 ppm (Alternaria solani) | inhibition of growth at 300 ppm (Colletotrichum capsici) | inhibition of growth at 300 ppm [1] | inhibition of growth at 300 ppm (Fusarium culmorum)

CCN(C)C=Nc1cc(C)cc(Nc2ccc(C(C)(C)C)cc2)c1Cl [Compound 25, N′-(3-((4-(tert-butyl)phenyl)amino)-2-chloro-5-methylphenyl)-N-ethyl-N-methylformimidamide]
≥ 70%: inhibition of growth at 300 ppm (Pyricularia oryzae) | inhibition of growth at 300 ppm (Rhizoctonia solani) | inhibition of growth at 300 ppm (Botrytis cinerea) | inhibition of growth at 300 ppm (Alternaria solani) | inhibition of growth at 300 ppm (Colletotrichum capsici) | inhibition of growth at 300 ppm [1] | inhibition of growth at 300 ppm (Fusarium culmorum)

CCN(C)C=Nc1cc(C)cc(Cc2ccccc2Cl)c1Cl [Compound 13, N′-(2-chloro-3-(2-chlorobenzyl)-5-methylphenyl)-N-ethyl-N-methylformimidamide]
≥ 70%: inhibition of growth at 300 ppm (Pyricularia oryzae) | inhibition of growth at 300 ppm (Rhizoctonia solani) | inhibition of growth at 300 ppm (Botrytis cinerea) | inhibition of growth at 300 ppm (Alternaria solani) | inhibition of growth at 300 ppm (Colletotrichum capsici) | inhibition of growth at 300 ppm [1] | inhibition of growth at 300 ppm (Fusarium culmorum)

CCN(C)C=Nc1cc(Cl)cc(Cc2ccc(F)c(F)c2)c1C [Compound 129, N′-(5-chloro-3-(3,4-difluorobenzyl)-2-methylphenyl)-N-ethyl-N-methylformimidamide]
≥ 70%: inhibition of growth at 300 ppm (Pyricularia oryzae) | inhibition of growth at 300 ppm (Rhizoctonia solani) | inhibition of growth at 300 ppm (Botrytis cinerea) | inhibition of growth at 300 ppm (Alternaria solani) | inhibition of growth at 300 ppm (Colletotrichum capsici) | inhibition of growth at 300 ppm [1] | inhibition of growth at 300 ppm (Fusarium culmorum) | pest or weed control at 500 ppm (Phakopsora pachyrhizi)

CCN(C)C=Nc1cc(C)cc(Cc2cccc(Cl)c2F)c1Cl [Compound 56, N′-(2-chloro-3-(3-chloro-2-fluorobenzyl)-5-methylphenyl)-N-ethyl-N-methylformimidamide]
≥ 70%: inhibition of growth at 300 ppm (Pyricularia oryzae) | inhibition of growth at 300 ppm (Rhizoctonia solani) | inhibition of growth at 300 ppm (Botrytis cinerea) | inhibition of growth at 300 ppm (Alternaria solani) | inhibition of growth at 300 ppm (Colletotrichum capsici) | inhibition of growth at 300 ppm [1] | inhibition of growth at 300 ppm (Fusarium culmorum) | pest or weed control at 500 ppm (Phakopsora pachyrhizi)

CCN(C)C=Nc1cc(C)cc(Cc2ccccc2)c1C [Compound 207, N′-(3-benzyl-2,5-dimethylphenyl)-N-ethyl-N-methylformimidamide]
≥ 70%: inhibition of growth at 300 ppm (Pyricularia oryzae) | inhibition of growth at 300 ppm (Rhizoctonia solani) | inhibition of growth at 300 ppm (Botrytis cinerea) | inhibition of growth at 300 ppm (Alternaria solani) | inhibition of growth at 300 ppm (Colletotrichum capsici) | inhibition of growth at 300 ppm [1] | inhibition of growth at 300 ppm (Fusarium culmorum) | pest or weed control at 500 ppm (Phakopsora pachyrhizi)

CCN(C)C=Nc1cc(C)cc(Cc2ccc(Cl)cc2)c1C [Compound 224, N′-(3-(4-chlorobenzyl)-2,5-dimethylphenyl)-N-ethyl-N-methylformimidamide]
≥ 70%: inhibition of growth at 300 ppm (Pyricularia oryzae) | inhibition of growth at 300 ppm (Rhizoctonia solani) | inhibition of growth at 300 ppm (Botrytis cinerea) | inhibition of growth at 300 ppm (Alternaria solani) | inhibition of growth at 300 ppm (Colletotrichum capsici) | inhibition of growth at 300 ppm [1] | inhibition of growth at 300 ppm (Fusarium culmorum) | pest or weed control at 500 ppm (Phakopsora pachyrhizi)

CCN(C)C=Nc1cc(C)cc(Cc2ccccc2Cl)c1C [Compound 220, N′-(3-(2-chlorobenzyl)-2,5-dimethylphenyl)-N-ethyl-N-methylformimidamide]
≥ 70%: inhibition of growth at 300 ppm (Pyricularia oryzae) | inhibition of growth at 300 ppm (Rhizoctonia solani) | inhibition of growth at 300 ppm (Botrytis cinerea) | inhibition of growth at 300 ppm (Alternaria solani) | inhibition of growth at 300 ppm (Colletotrichum capsici) | inhibition of growth at 300 ppm [1] | inhibition of growth at 300 ppm (Fusarium culmorum) | pest or weed control at 500 ppm (Phakopsora pachyrhizi)

CCN(C)C=Nc1cc(Cl)cc(Nc2cccc(Cl)c2)c1C [Compound 163, N′-(5-chloro-3-((3-chlorophenyl)amino)-2-methylphenyl)-N-ethyl-N-methylformimidamide]
≥ 70%: inhibition of growth at 300 ppm (Pyricularia oryzae) | inhibition of growth at 300 ppm (Rhizoctonia solani) | inhibition of growth at 300 ppm (Botrytis cinerea) | inhibition of growth at 300 ppm (Alternaria solani) | inhibition of growth at 300 ppm (Colletotrichum capsici) | inhibition of growth at 300 ppm [1] | inhibition of growth at 300 ppm (Fusarium culmorum)

CCN(C)C=Nc1cc(C)cc(Nc2cccc(F)c2)c1Cl [Compound 35, N′-(2-chloro-3-((3-fluorophenyl)amino)-5-methylphenyl)-N-ethyl-N-methylformimidamide]
≥ 70%: inhibition of growth at 300 ppm (Pyricularia oryzae) | inhibition of growth at 300 ppm (Rhizoctonia solani) | inhibition of growth at 300 ppm (Botrytis cinerea) | inhibition of growth at 300 ppm (Alternaria solani) | inhibition of growth at 300 ppm (Colletotrichum capsici) | inhibition of growth at 300 ppm [1] | inhibition of growth at 300 ppm (Fusarium culmorum)

CCN(C)C=Nc1cc(Cl)cc(Nc2ccc(OC)cc2)c1C [Compound 162, N′-(5-chloro-3-((4-methoxyphenyl)amino)-2-methylphenyl)-N-ethyl-N-methylformimidamide]
≥ 70%: inhibition of growth at 300 ppm (Pyricularia oryzae) | inhibition of growth at 300 ppm (Rhizoctonia solani) | inhibition of growth at 300 ppm (Alternaria solani) | inhibition of growth at 300 ppm (Colletotrichum capsici) | inhibition of growth at 300 ppm [1] | inhibition of growth at 300 ppm (Fusarium culmorum)

CCN(C)C=Nc1cc(C)cc(N(C)c2cc(C)ccc2Cl)c1Cl [Compound 120, N′-(2-chloro-3-((2-chloro-5-methylphenyl)(methyl)amino)-5-methylphenyl)-N-ethyl-N-methylformimidamide]
≥ 70%: inhibition of growth at 300 ppm (Pyricularia oryzae) | inhibition of growth at 300 ppm (Alternaria solani) | inhibition of growth at 300 ppm (Colletotrichum capsici) | inhibition of growth at 300 ppm [1] | inhibition of growth at 300 ppm (Fusarium culmorum) | pest or weed control at 500 ppm (Phakopsora pachyrhizi)

CCN(C)C=Nc1cc(F)cc(Nc2ccc(F)c(F)c2)c1C [Compound 73, N′-(3-((3,4-difluorophenyl)amino)-5-fluoro-2-methylphenyl)-N-ethyl-N-methylformimidamide]
≥ 70%: inhibition of growth at 300 ppm (Pyricularia oryzae) | inhibition of growth at 300 ppm (Rhizoctonia solani) | inhibition of growth at 300 ppm (Botrytis cinerea) | inhibition of growth at 300 ppm (Alternaria solani) | inhibition of growth at 300 ppm (Colletotrichum capsici) | inhibition of growth at 300 ppm [1] | inhibition of growth at 300 ppm (Fusarium culmorum)

CCN(C)C=Nc1cc(F)cc(Nc2cc(Cl)ccc2C)c1C [Compound 116, N′-(3-((5-chloro-2-methylphenyl)amino)-5-fluoro-2-methylphenyl)-N-ethyl-N-methylformimidamide]
≥ 70%: inhibition of growth at 300 ppm (Pyricularia oryzae) | inhibition of growth at 300 ppm (Alternaria solani) | inhibition of growth at 300 ppm (Colletotrichum capsici) | inhibition of growth at 300 ppm [1] | inhibition of growth at 300 ppm (Fusarium culmorum) | pest or weed control at 500 ppm (Phakopsora pachyrhizi)

CCN(C)C=Nc1cc(C)cc(Cc2cccc(F)c2)c1C [Compound 5, N-ethyl-N′-(3-(3-fluorobenzyl)-2,5-dimethylphenyl)-N-methylformimidamide]
≥ 70%: inhibition of growth at 300 ppm (Pyricularia oryzae) | inhibition of growth at 300 ppm (Rhizoctonia solani) | inhibition of growth at 300 ppm (Botrytis cinerea) | inhibition of growth at 300 ppm (Alternaria solani) | inhibition of growth at 300 ppm (Colletotrichum capsici) | inhibition of growth at 300 ppm [1] | inhibition of growth at 300 ppm (Fusarium culmorum)

CCN(C)C=Nc1cc(C)cc(Nc2ccc(F)c(OC)c2)c1Cl [Compound 275, N′-(2-chloro-3-((4-fluoro-3-methoxyphenyl)amino)-5-methylphenyl)-N-ethyl-N-methylformimidamide]
≥ 70%: inhibition of growth at 300 ppm (Pyricularia oryzae) | inhibition of growth at 300 ppm (Rhizoctonia solani) | inhibition of growth at 300 ppm (Alternaria solani) | inhibition of growth at 300 ppm (Colletotrichum capsici) | inhibition of growth at 300 ppm [1] | inhibition of growth at 300 ppm (Fusarium culmorum) | pest or weed control at 500 ppm (Phakopsora pachyrhizi)

CCN(C)C=Nc1cc(C)cc(Cc2ccc(C)cc2)c1C [Compound 2, N′-(2,5-dimethyl-3-(4-methylbenzyl)phenyl)-N-ethyl-N-methylformimidamide]
≥ 70%: inhibition of growth at 300 ppm (Pyricularia oryzae) | inhibition of growth at 300 ppm (Rhizoctonia solani) | inhibition of growth at 300 ppm (Botrytis cinerea) | inhibition of growth at 300 ppm (Alternaria solani) | inhibition of growth at 300 ppm (Colletotrichum capsici) | inhibition of growth at 300 ppm [1] | inhibition of growth at 300 ppm (Fusarium culmorum)

CCN(C)C=Nc1cc(C)cc(Cc2ccccc2C)c1Cl [Compound 12, N′-(2-chloro-5-methyl-3-(2-methylbenzyl)phenyl)-N-ethyl-N-methylformimidamide]
≥ 70%: inhibition of growth at 300 ppm (Pyricularia oryzae) | inhibition of growth at 300 ppm (Rhizoctonia solani) | inhibition of growth at 300 ppm (Botrytis cinerea) | inhibition of growth at 300 ppm (Alternaria solani) | inhibition of growth at 300 ppm (Colletotrichum capsici) | inhibition of growth at 300 ppm [1] | inhibition of growth at 300 ppm (Fusarium culmorum)

CCN(C)C=Nc1cc(C)cc(Cc2cccc(Cl)c2)c1C [Compound 3, N′-(3-(3-chlorobenzyl)-2,5-dimethylphenyl)-N-ethyl-N-methylformimidamide]
≥ 70%: inhibition of growth at 300 ppm (Pyricularia oryzae) | inhibition of growth at 300 ppm (Rhizoctonia solani) | inhibition of growth at 300 ppm (Botrytis cinerea) | inhibition of growth at 300 ppm (Alternaria solani) | inhibition of growth at 300 ppm (Colletotrichum capsici) | inhibition of growth at 300 ppm [1] | inhibition of growth at 300 ppm (Fusarium culmorum)
